Read-outs that look alike come from different tables or passages of the source.

Series [1] deals with adult female Culex pipiens. The series can be described thus: Repellent effect of treated wire net bags (mouse as blood source) on blood sucking by Culex pipiens. The settings on record: summary of Experimental Example 1. Format: in vivo. On the procedure:
A 20-mesh soft wire net was cut into 15×16 cm, folded into two, and open two sides (longitudinal and transverse sides) were folded to give a bag. Four of these bags were prepared. Farnesylacetone (mixing ratio:[…]/trans-trans form=15/50/35) was dissolved in ethanol at 0.2 wt % and 1 wt % and one wire net bag each was immersed in one of the obtained solutions for about 10 sec. The bag was taken out from the solution, and air-dried at room temperature for 30 min to give a farnesylacetone treated wire net bag. The wire net bag treated with farnesylacetone 0.2 wt % solution was taken as Example 1, and the wire net bag treated with farnesylacetone 1 wt % solution was taken as Example 2. […] The wire net bags of Examples 1 and 2 and Comparative Example 1 were evaluated in Experimental Example 1 for the repellent effect on adult female Culex pipiens using an untreated wire net bag as a control.
50 to 70 female adult Culex pipiens at 10-15 days after eclosion and having high blood sucking activity were released inside each of four adult raising cages (30×40×30 cm). […] As a blood sucking result, the number of the test Culex pipiens with swollen abdomen was counted at a certain time intervals after the start of the test, which number was divided by the number of test Culex pipiens to calculate a blood sucking rate (%). […]

For series [2], the system named is Blattella germanica. In words: Box shelter lurking place choice test with coated paper sheets. The settings on record: summary of Experimental Example 2. Format: in vivo. As to the method:
A mixture of farnesylacetone (mixing ratio:cis-cis form/cis-trans form and trans-cis form/trans-trans form=15/50/35) and vitamin E (antioxidant) (weight ratio 99:1) was dissolved in methanol at 0.06 wt % and 0.3 wt %. The obtained solutions were coated on a 0.26 mm thick paper sheet at 167 g/l m^2, and air-dried to evaporate methanol, whereby sheets having a farnesylacetone coating at 0.1 g/m^2 and 0.5 g/m^2 were obtained and used as Example 3 and Example 4, respectively. Both a farnesylacetone coating sheet prepared on the very day and one left open and uncontrolled by hanging in a room at a room temperature of 21-24° C. for 2 weeks, where ventilation rate was 10-15 times per 1 hour, were evaluated in Experimental Examples 2-4 for repellence performance against the larvae of Blattella germanica, Camponotus japonicus and Anthrenus verbasci using untreated paper sheet as a control.
One box shelter (length 8 cm×side 12.5 cm×height 2 cm, made of white corrugated cardboard) having one entrance (width 1 cm×height 2 cm) and one of the test-day-made products of Example 3 and 4, the products left open and uncontrolled for 2 weeks of Example 3 and 4 and a control paper sheet, which was adhered to an interior floor surface, was prepared for each test sample. […]

The test system of series [3] is Coptotermes formosanus. It counts as in vivo. To be noted: for number of Coptotermes formosanus in test section: 30 ants in total; for number of Coptotermes formosanus in control section: untreated half of same schale. On the procedure: Three sets of experiment systems were prepared wherein quartz sand allowed to absorb a suitable amount of water was spread on a 90 mm diameter schale in a thickness of 1 mm, a 5 mm width groove was formed on a diameter line to divide the dish into two, three 8 mm diameter circular filters impregnated with a suitable amount of a solution of farnesylacetone or phytone in acetone and air-dried were placed in one test section, and three untreated circular filters were placed in the control section.
In each experiment system were each released 10 worker ants of Coptotermes formosanus and raised in an incubator at 28° C., humidity 70%. After a certain time, the number of Coptotermes formosanus in the test section and the control section was counted. The repellence rate and mortality were calculated from the following formulas. Repellence rate={1−(number of the ants in the test section/number of the survived ants)}×100 (%) Mortality=number of the dead ants/30×100 (%)

Series [4] concerns fleas parasitic in dogs. The series can be described thus: Scratching behaviour of dog raised in sprayed dog kennel. Format: in vivo. The settings on record: kennel sprayed every week with 1% solution in ethanol; observed 30 min every day for one week. On the procedure:
(§1) A dog raised in a dog kennel (vaporization area expanding means), the inside of which was sprayed every week with a 1% solution of farnesylacetone in ethanol with a spray container (reservoir means), and a dog raised in a dog kennel, the inside of which was sprayed every week with ethanol alone, were observed and compared for their behaviors for 30 min every day for one week. The dog raised in the farnesylacetone treated dog kennel scratched its body twice a day, but the dog raised in the dog kennel free of farnesylacetone treatment scratched its body 13 times a day. The concentration of farnesylacetone in the dog kennel was not more than 1 μg/L (detection limit). It is assumed that the fleas parasitic in dogs were repelled and decreased by farnesylacetone.

Series [5] is described as follows: Concentration of farnesylacetone in the dog kennel. Format: physicochemical. The settings on record: kennel sprayed every week with 1% solution in ethanol; detection limit. As to the method: as §1
The nature of series [6]: Measurement of farnesylacetone concentration in the air (gas chromatography, FID). Format: physicochemical. The settings on record: 1 hr. As to the method: Farnesylacetone (1 mL) was placed in a 50 mL sample bottle, and a large magnetic stirring bar capable of rotating the air as well was placed therein. […] Thereafter, the gas in the sample bottle was taken by 5 mL with a gas tight syringe, and using gas chromatography with an FID detector, the concentration of farnesylacetone was measured by the absolute calibration method.
(§2) Farnesylacetone (1 mL) was placed in a 50 mL sample bottle, and a large magnetic stirring bar capable of rotating the air as well was placed therein The bottle was placed neck-deep in a […] with rotation, and heated for 1 hr to fill the inside of the sample bottle with farnesylacetone vapor. Thereafter, the gas in the sample bottle was taken by 5 mL with a gas tight syringe, and using gas chromatography with an FID detector, the concentration of farnesylacetone was measured by an absolute calibration method. […] Almost simultaneously, the gas (5 mL) in the sample bottle was taken again, a propeller was set in a 10 L beaker, the gas was added into the sealed beaker, the air in the beaker was stirred with the propeller for 10 min to dilute the gas 2,000-fold, whereby gas containing […] farnesylacetone was obtained. […]

Series [7] can be described thus: Odor and discomfort of sampled farnesylacetone gas in human. As to the method: Farnesylacetone (1 mL) was placed in a 50 mL sample bottle, and a large magnetic stirring bar capable of rotating the air as well was placed therein. The bottle was placed neck-deep in an oil bath at 130° C. with rotation, and heated for 1 hr to saturate the inside of the sample bottle with farnesylacetone vapor. Thereafter, the gas in the sample bottle was taken by 5 mL with a gas tight syringe, and using gas chromatography with an FID detector, the concentration of farnesylacetone was measured by the absolute calibration method.
as §2

Consider `CCN(CC)C(=O)c1cccc(C)c1` [DEET, N,N-diethyl-m-tolamide, reference compound], for which the “course of repellent effect of treated wire net bag on Culex pipiens” value in series [1] is “decreases with time”.

Turning to `CC(=O)CC/C=C(\C)CC/C=C(\C)CCC=C(C)C` [farnesylacetone], the “course of repellent effect of treated wire net bag on Culex pipiens” value in series [1] is “maintained at a high level even after 18 hr”. The “time for which treated paper sheet maintained Blattella germanica control effect” value in series [2] was “at least 2 weeks”. Besides, the “death (number of the dead ants)” value in series [3] (concentration 1%, 1 day later) is recorded as 1; in series [3] (concentration 1%, 4 days later), 1; in series [3] (concentration 5%, 1 day later), 2; in series [3] (concentration 5%, 4 days later), 3. Besides, the repellence rate is reported as 86% in series [3] (concentration 1%, 1 day later); 100% in series [3] (concentration 1%, 4 days later); 100% in series [3] (concentration 5%, 1 day later); 96% in series [3] (concentration 5%, 4 days later). The “number of Coptotermes formosanus in test section” value (shortened to “number … in test section”) is recorded as 4 in series [3] (concentration 1%, 1 day later); 0 in series [3] (concentration 1%, 4 days later); 0 in series [3] (concentration 5%, 1 day later); 1 in series [3] (concentration 5%, 4 days later). Also, the “number of Coptotermes formosanus in control section” value (from here on “number … in control section”) came out at 25 in series [3] (concentration 1%, 1 day later); 29 in series [3] (concentration 1%, 4 days later); 28 in series [3] (concentration 5%, 1 day later); 26 in series [3] (concentration 5%, 4 days later). Further, the “dog scratched its body (times a day)” value in series [4] was “twice a day”. Further, in series [5], the “concentration of farnesylacetone in the dog kennel” value is given as “not more than 1 μg/L”. In addition, the “concentration of farnesylacetone in the gas” value was 20 µg/L in series [6] (sample bottle filled with vapor, water bath at 60° C.) and 20,000 μg/L in series [6] (sample bottle saturated with vapor, oil bath at 130° C.). The “odor and effect of sampled gas on human” value in series [7] (gas containing 20,000 μg/L) was “had a strong odor, caused cough when inhaled in a large amount, and provoked uncomfortable feeling in human”. Besides, the “odor of sampled gas detected by human” value in series [7] (gas further diluted 10-fold, printed as containing 0.01 μg/L) is “scarcely had an odor detected by human”.

In the case of `CC(=O)CCCC(C)CCCC(C)CCCC(C)C` (stereo not drawn) [phytone], in series [3] (concentration 10%, 1 day later), the “death (number of the dead ants)” value worked out at 0, the repellence rate came to 63%, the “number … in test section” value worked out at 11 and the “number … in control section” value is 19. In series [3] (concentration 50%, 1 day later), the “death (number of the dead ants)” value worked out at 1, the repellence rate turned out to be 86%, the “number … in test section” value stood at 4 and the “number … in control section” value was determined as 25.

(Values after patent publication US20050129725A1, “Method of controlling pest and pest control agent” (KURARAY CO., LTD., priority 2002, published 2005).)
